# Assay results published in patent US9464128B2, “Site-specific pegylated linear salmon calcitonin analogues” (INSTITUTE OF PHARMACOLOGY AND TOXICOLOGY ACADEMY OF …, priority 2007, dated 2016).
# Experiments:
# female Wistar rats [1] = experiment: Long-acting performance study: bone density of lumbar vertebrae, femur and tibia in castrated rats; type: in vivo, rat; conditions: for Bone density, lumbar vertebrae / Bone density, tibia / Bone density, femur: 12th week, n = 10; for influence on bone density of lumbar vertebrae (in words): 12 weeks, high dose group of compound 12, positive contrast sCT group
# Protocol: (§1) 60 female Wistar rats, body weight 250-280 g, 16 weeks aged, were randomly divided into six groups: pseudo-castrated contrast group (10 rats); castrated contrast group (10 rats); calcitonin group (10 rats, twice every week, 0.036 μg/kg body weight/time); a low dose group of compound 12 (10 rats, twice every week, 0.216 μg/kg body weight/time); a high dose group of compound (10 rats, twice every week, 1.08 μg/kg body weight/time); and a high dose group of compound (10 rats, once every week, 1.08 μg/kg body weight/time). In each of the groups, the administration was given subcutaneously. During the experiment, the rats in each of the groups freely fed on standard solid forage and drank water. Except for the high dose group of compound 12 with administration once every week, blood samples were respectively taken from the orbits of the rats in other groups at the 6th week of administration, and subjected to the determination of osteocalcin, serum calcium and alkaline phosphatase (Table 2). At the end of the 12th week of administration, in addition to osteocalcin, serum calcium and alkaline phosphatase (Table 3), the bone densities of lumbar vertebrae, tibia and femur in the rats of each of the groups were determined (Table 4).
# rats [2] = experiment: Calcium-reducing activity, subcutaneous injection to abdomens of rats (blood calcium determination); type: in vivo, rat
# Protocol: The calcium-reducing activity of sCT(L)s and their PEGylated analogues was determined by administering them to abdomens of rats via subcutaneous injection, according to the method described in the literature (cf. Qian Deming, Shen Genquan, Ke Ruolun; Biological Assay of Calcitonin by Blood Calcium Determination in Rats, CHINESE JOURNAL OF PHARMACEUTICAL ANALYSIS, 1994, 14(3): 30-34).
# The activity results as determined were listed as follows, while the reference activity of salmon calcitonin being 4500 IU/mg.
# female Wistar rats [3] = experiment: Long-acting performance study: bone metabolism (alkaline phosphatase, serum calcium, osteocalcin) in castrated rats; type: in vivo, rat; conditions: for Alkaline phosphatase / Osteocalcin / Serum calcium: n = 10
# Protocol: as §1
# rats [4] = conditions: reference standard; cited from earlier work
# [5] = kidney homogenate; cited from earlier work
# [6] = high dose 1.08 μg/kg s.c. once/week
# [7] = high dose 1.08 μg/kg s.c. twice/week
# [8] = low dose 0.216 μg/kg s.c. twice/week
# [9] = 6th week, high dose 1.08 μg/kg s.c. twice every week
# [10] = 6th week, low dose 0.216 μg/kg s.c. twice every week
# [11] = 12th week, high dose 1.08 μg/kg s.c. twice every week
# [12] = 12th week, low dose 0.216 μg/kg s.c. twice every week
# [13] = 6th week, 0.036 μg/kg s.c. twice every week
# [14] = 12th week, 0.036 μg/kg s.c. twice every week
substance,measurement,setting,value
"[D-Ala^1,Cys^7(mPEG5000-MAL),D-Ala^30]sCT [Compound 12]","Bone density, lumbar vertebrae",female Wistar rats [1]; [6],0.182 ± 0.014 g/cm^2
same,"Bone density, tibia",female Wistar rats [1]; [6],0.251 ± 0.015 g/cm^2
same,"Bone density, femur",female Wistar rats [1]; [7],0.241 ± 0.017 g/cm^2
same,"Bone density, lumbar vertebrae",female Wistar rats [1]; [7],0.181 ± 0.018 g/cm^2
same,"Bone density, tibia",female Wistar rats [1]; [7],0.256 ± 0.017 g/cm^2
same,"Bone density, femur",female Wistar rats [1]; [8],0.240 ± 0.028 g/cm^2
same,"Bone density, lumbar vertebrae",female Wistar rats [1]; [8],0.175 ± 0.021 g/cm^2
same,"Bone density, tibia",female Wistar rats [1]; [8],0.245 ± 0.014 g/cm^2
same,influence on bone density of lumbar vertebrae (in words),female Wistar rats [1],increased the bone density of lumbar vertebrae
same,Activity (calcium-reducing activity),rats [2],1467 IU/mg
same,Alkaline phosphatase,female Wistar rats [3]; [9],180.0 ± 19.4 u/100 ml
same,Osteocalcin,female Wistar rats [3]; [9],3.81 ± 0.24 ng/100 ml
same,Serum calcium,female Wistar rats [3]; [9],9.2 ± 0.2 mg/100 ml
same,Alkaline phosphatase,female Wistar rats [3]; [10],187.0 ± 30.4 u/100 ml
same,Osteocalcin,female Wistar rats [3]; [10],3.77 ± 0.25 ng/100 ml
same,Serum calcium,female Wistar rats [3]; [10],9.8 ± 0.3 mg/100 ml
same,Alkaline phosphatase,female Wistar rats [3]; [11],188.2 ± 51.2 u/100 ml
same,Osteocalcin,female Wistar rats [3]; [11],3.95 ± 0.24 ng/100 ml
same,Serum calcium,female Wistar rats [3]; [11],9.4 ± 0.4 mg/100 ml
same,Alkaline phosphatase,female Wistar rats [3]; [12],202.4 ± 44.8 u/100 ml
same,Osteocalcin,female Wistar rats [3]; [12],4.01 ± 0.25 ng/100 ml
same,Serum calcium,female Wistar rats [3]; [12],9.8 ± 0.3 mg/100 ml
same,influence on bone metabolism of rats compared with sCT group (in words),"female Wistar rats [3]; high dose group, 6th and 12th weeks of administration",substantially equivalent to the positive contrast sCT group
"[D-Ala^1,Cys^7,D-Ala^30]sCT [Compound 1]",Activity (calcium-reducing activity),rats [2],5202 IU/mg
"[Val^1, Ala^7, Cys^16(mPEG5000-MAL), Des-19-22, Ala^30]sCT [Compound 14]",Activity (calcium-reducing activity),rats [2],987 IU/mg
"[Val^1, Ala^7, Cys^19(mPEG5000-MAL),Des-20-22, Ala^30]sCT [Compound 21]",Activity (calcium-reducing activity),rats [2],1208 IU/mg
"[Val^1, Cys^7(mPEG5000-MAL),Des-19-22, Ala^30]sCT [Compound 16]",Activity (calcium-reducing activity),rats [2],717 IU/mg
"[Val^1,Ala^7,Cys^16,Ala^30,Des-19-22]sCT [Compound 3]",Activity (calcium-reducing activity),rats [2],3394 IU/mg
"[Val^1,Ala^7,Cys^19(mPEG5000-MAL),Des-20-21, Ala^30]sCT [Compound 22]",Activity (calcium-reducing activity),rats [2],1707 IU/mg
"[Val^1,Ala^7,Cys^19,Ala^30,Des-20-21]sCT [Compound 11]",Activity (calcium-reducing activity),rats [2],379 IU/mg
"[Val^1,Ala^7,Cys^19,Ala^30,Des-20-22]sCT [Compound 10]",Activity (calcium-reducing activity),rats [2],892 IU/mg
"[Val^1,Ala^7,Gln^11,18,Cys^16(mPEG5000-MAL),Des-19-22,Ala^30]sCT [Compound 15]",Activity (calcium-reducing activity),rats [2],301 IU/mg
"[Val^1,Ala^7,Gln^11,18,Cys^16,Ala^30,Des-19-22]sCT [Compound 4]",Activity (calcium-reducing activity),rats [2],807 IU/mg
"[Val^1,Cys^7(mPEG5000-MAL), Gln^11,18,Des-19-22,Ala^30]sCT [Compound 20]",Activity (calcium-reducing activity),rats [2],1265 IU/mg
"[Val^1,Cys^7(mPEG5000-MAL), Gln^11,Des-19-22, Ala^30]sCT [Compound 19]",Activity (calcium-reducing activity),rats [2],815 IU/mg
"[Val^1,Cys^7(mPEG5000-MAL), Gln^18,Des-19-22, Ala^30]sCT [Compound 18]",Activity (calcium-reducing activity),rats [2],763 IU/mg
"[Val^1,Cys^7(mPEG5000-MAL),Des-19,Ala^30]sCT [Compound 13]",Activity (calcium-reducing activity),rats [2],438 IU/mg
"[Val^1,Cys^7(mPEG5000-MAL),Des-19,Ala^30]sCT [Compound 17]",Activity (calcium-reducing activity),rats [2],1921 IU/mg
"[Val^1,Cys^7,Ala^30,Des-19]sCT [Compound 6]",Activity (calcium-reducing activity),rats [2],4347 IU/mg
"[Val^1,Cys^7,Des-19,Ala^30]sCT [Compound 2]",Activity (calcium-reducing activity),rats [2],1136 IU/mg
"[Val^1,Cys^7,Des-19-22,Ala^30]sCT [Compound 5]",Activity (calcium-reducing activity),rats [2],67 IU/mg
"[Val^1,Cys^7,Gln^11,18,Ala^30,Des-19-22]sCT [Compound 9]",Activity (calcium-reducing activity),rats [2],920 IU/mg
"[Val^1,Cys^7,Gln^11,Ala^30,Des-19-22]sCT [Compound 8]",Activity (calcium-reducing activity),rats [2],344 IU/mg
"[Val^1,Cys^7,Gln^18,Ala^30,Des-19-22]sCT [Compound 7]",Activity (calcium-reducing activity),rats [2],233 IU/mg
salmon calcitonin [reference compound],"Bone density, femur",female Wistar rats [1]; 0.036 μg/kg s.c. twice/week,0.242 ± 0.027 g/cm^2
same,"Bone density, lumbar vertebrae",female Wistar rats [1]; 0.036 μg/kg s.c. twice/week,0.181 ± 0.013 g/cm^2
same,"Bone density, tibia",female Wistar rats [1]; 0.036 μg/kg s.c. twice/week,0.247 ± 0.127 g/cm^2
same,influence on bone density of lumbar vertebrae (in words),female Wistar rats [1],increased the bone density of lumbar vertebrae
same,Alkaline phosphatase,female Wistar rats [3]; [13],179.8 ± 31.4 u/100 ml
same,Osteocalcin,female Wistar rats [3]; [13],3.90 ± 1.1 ng/100 ml
same,Serum calcium,female Wistar rats [3]; [13],9.3 ± 0.2 mg/100 ml
same,Alkaline phosphatase,female Wistar rats [3]; [14],200.9 ± 40.1 u/100 ml
same,Osteocalcin,female Wistar rats [3]; [14],3.38 ± 0.17 ng/100 ml
same,Serum calcium,female Wistar rats [3]; [14],9.3 ± 0.2 mg/100 ml
same,reference activity of salmon calcitonin,rats [4],4500 IU/mg
same,metabolic half life,[5],4.8 min
